By IC50 is commonly meant the concentration that gives 50% inhibition. The low end stands for greater potency, the high end for weaker potency.

The test system of this assay is THP-1. Nature of the assay: Cytotoxicity towards the acute monocytic leukemia cell line (THP-1). The format is functional, cell-based. As to conditions: Homo sapiens.
Turning to `CC(C)(C)[Si](OC[C@H]1CCC[C@]12CCC[C@@H]1CCC(CO)CN12)(c1ccccc1)c1ccccc1` (some centres not stated), the IC50 was found to be 32 µM. The compound `O=C1CCC[C@H]2CCC[C@]3(CCC[C@@H]3CO)N12` had an IC50 above 100 µM. Compound `CC(C)(C)[Si](OC[C@H]1CCC[C@]12CCC[C@@H]1CCCC(=O)N12)(c1ccccc1)c1ccccc1` came in with an IC50 of 71 µM. Regarding `COC(=O)C1=CC[C@H]2CCC[C@]3(CCC[C@@H]3CO[Si](c3ccccc3)(c3ccccc3)C(C)(C)C)N2C1=O`, inhibition was half-maximal at 5 µM (IC50). With `CCO/C(O)=C/C1=N[C@]2(CCC1)CCC[C@@H]2CO` the figure was above 100 µM; with `CCO/C(O)=C/C1=N[C@]2(CCC1)CCC[C@@H]2CO[Si](c1ccccc1)(c1ccccc1)C(C)(C)C`, above 100 µM.

The compound `COC(=O)C1CC[C@H]2CCC[C@]3(CCC[C@@H]3CO)N2C1=O` (some centres not stated) came in with an IC50 above 100 µM. The same measure for `CC(=O)N1[C@@H](CCO)CCC[C@]12CCC[C@@H]2CO[Si](c1ccccc1)(c1ccccc1)C(C)(C)C`: 25 µM; for `CC(C)(C)[Si](OC[C@H]1CCC[C@]12CCC[C@@H]1CCC(CO)C(=O)N12)(c1ccccc1)c1ccccc1` (some centres not stated): 63 µM.

For the compound `CCOC(=O)C[C@H]1CCC[C@]2(CCC[C@@H]2CO[Si](c2ccccc2)(c2ccccc2)C(C)(C)C)N1`, the IC50 came to 40 µM. This IC50 is about 1.6-fold lower than that of the compound before. `O=C1OC[C@H]2CCC[C@]23CCC[C@H](CCO)N13`: the half-maximal inhibitory concentration (IC50) was above 100 µM. As to `CC(C)(C)[Si](OC[C@H]1CCC[C@]12CCC[C@H](CCO)N2)(c1ccccc1)c1ccccc1`, the IC50 worked out at 8.9 µM.

Consider `CC(C)(C)[Si](OC[C@H]1CCC[C@]12CCC[C@@H]1CCOC(=O)N12)(c1ccccc1)c1ccccc1`, for which it took 32 µM to reach half-maximal inhibition (IC50). `N#CC1=CC[C@H]2CCC[C@]3(CCC[C@@H]3CO)N2C1=O`: the IC50 was above 100 µM. With `CCOC(=O)C[C@@H]1CCC[C@@]23CCC[C@@H]2CON13` the figure was above 100 µM. As for `O=C1OCC[C@H]2CCC[C@]3(CCC[C@@H]3CO)N12`, the IC50 is above 100 µM.

As for `COC(=O)C1CC[C@H]2CCC[C@]3(CCC[C@@H]3CO[Si](c3ccccc3)(c3ccccc3)C(C)(C)C)N2C1=O` (some centres not stated), the IC50 is above 100 µM.

The record behind these values is ChEMBL document CHEMBL1134851, “Apoptosis-inducing activity of synthetic intermediates of halichlorine” (Bioorg Med Chem Lett, 2002).
